A short description of data set [1]: Liver microsomal stability. The format is in vitro ADME. The conditions noted are these: mouse liver microsomes, 0.5 mg protein/mL, 1 μM compound. The protocol: An appropriate amount of the compound was precisely weighed and dissolved in DMSO to prepare a 5.0 mM stock solution. The 5.0 mM stock solution was diluted with DMSO to 1.0 mM, and finally diluted with water to a 10 μM working solution of the test sample for use (the DMSO content in the reaction system was 0.1%).
(1) The liver microsomes (20 mg protein/mL) were taken from a −80° C. refrigerator, pre-incubated on a 37° C. water bath thermostatic oscillator for 3 min, and thawed for use.
(2) An incubation system (without compound and β-NADPH) was prepared according to “composition of the incubation system” described above, and pre-incubated on a 37° C. water bath thermostatic oscillator for 2 min.
(3) Control group (without β-NADPH): 30 μL of water and 30 μL of compound working solution (10 μM) were added to 240 μL of the incubation system in step (2), and the reaction system was vortexed for 30 s and thoroughly mixed. The total volume of the reaction system was 300 μL. The sample was duplicated. The reaction solution was placed on a 37° C. water bath thermostatic oscillator for incubation, and timing was started. The sampling was conducted at 0 min and 60 min.
(4) Sample group: 70 μL of β-NADPH solution (10 mM) and 70 μL of compound working solution (10 μM) were added to 560 μL of the incubation system in step (2), and the total volume of the reaction system was 700 μL. The reaction solution was vortexed for 30 s and thoroughly mixed. The sample was duplicated. The reaction solution was placed on a 37° C. water bath thermostatic oscillator for incubation, and timing was started. The sampling was conducted at 0 min, 5 min, 10 min, 20 min, 30 min and 60 min.
(5) The reaction solution was vortexed for 3 min, and centrifuged at 12,000 rpm for 5 min.
(6) 50 μL of the supernatant was added to 150 μL of water, and the resulting solution was thoroughly vortexed and analyzed by LC/MS/MS.
(Liver microsomes are a subcellular fraction often used to study metabolism.)

In data set [2] the target is T1, H1299 cell pMer (Homo sapiens, UniProt Q12866).
T1 construct: endogenous in cells; host or cells: H1299
T1 sequence (Q12866 21-999): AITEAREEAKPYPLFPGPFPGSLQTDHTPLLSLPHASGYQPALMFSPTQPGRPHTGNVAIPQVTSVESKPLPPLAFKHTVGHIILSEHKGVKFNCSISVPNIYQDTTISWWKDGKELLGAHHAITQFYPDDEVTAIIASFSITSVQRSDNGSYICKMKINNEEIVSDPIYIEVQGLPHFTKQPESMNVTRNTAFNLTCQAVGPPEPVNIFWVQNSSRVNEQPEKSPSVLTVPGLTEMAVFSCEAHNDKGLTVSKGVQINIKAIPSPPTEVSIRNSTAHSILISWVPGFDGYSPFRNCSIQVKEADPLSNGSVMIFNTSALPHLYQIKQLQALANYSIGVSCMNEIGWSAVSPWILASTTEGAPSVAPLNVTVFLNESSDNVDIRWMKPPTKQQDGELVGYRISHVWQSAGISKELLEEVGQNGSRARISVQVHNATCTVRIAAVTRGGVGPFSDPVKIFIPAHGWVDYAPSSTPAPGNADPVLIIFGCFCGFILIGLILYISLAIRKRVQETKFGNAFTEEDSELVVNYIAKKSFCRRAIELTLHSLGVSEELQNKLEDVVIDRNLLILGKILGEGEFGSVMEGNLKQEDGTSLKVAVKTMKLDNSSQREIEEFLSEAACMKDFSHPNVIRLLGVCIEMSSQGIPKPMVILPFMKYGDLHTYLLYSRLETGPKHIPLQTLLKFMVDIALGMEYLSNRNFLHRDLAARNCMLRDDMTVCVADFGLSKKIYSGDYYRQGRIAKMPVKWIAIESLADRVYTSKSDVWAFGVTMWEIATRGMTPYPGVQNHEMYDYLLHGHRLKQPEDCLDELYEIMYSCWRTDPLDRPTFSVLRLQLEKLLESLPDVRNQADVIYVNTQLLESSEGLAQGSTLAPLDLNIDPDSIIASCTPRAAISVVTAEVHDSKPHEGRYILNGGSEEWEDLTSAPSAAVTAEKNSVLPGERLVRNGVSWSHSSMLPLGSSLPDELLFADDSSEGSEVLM
Description: Inhibitory activity on cell pMer, H1299 cells, Human Mer Mab stimulation, Western Blot. It counts as cell-based. To be noted: Human Mer Mab 200 ng/mL. The protocol:
H1299 is anon-small cell lung cancer cell.
H1299 cells were inoculated to a 6-well plate (containing 10% FBS 1640 medium, 5×10^5 cells per well) and adherently cultivated at 37° C., and 5% CO2 for 18 hrs. The cells were starved overnight, and then compound solutions with different concentrations were added. The compounds had final concentrations of 0.35, 1.1, 3.3 and 10 nM. […] There was a medium containing 1‰DMSO in the negative control well. The cells were incubated at 37° C., and 5% CO2 for 60 min, and then Human Mer Mab (R&D, final concentration: 200 ng/mL) was added to each well. The cells were further incubated for 60 min, and then the total protein of the cells was extracted for Western Blot experiment. Gray analysis was performed on the results with Image J software, and IC50 values were calculated with GraphPad 5.0 software. The inhibitory activities of the compounds on cell pMer were detected.

The source of these data is patent publication US20210177828A1, “TAM FAMILY KINASE /AND CSF1R KINASE INHIBITOR AND USE THEREOF” (Nanjing Transthera Biosciences Co., Ltd., priority 2018, published 2021).

Bounds are passed on as bounds.

As a reminder, the half-life is how long it takes for the measured level to halve. The low end stands for rapid decline, the high end for slow decline. One may read the microsomal CLint as the rate of metabolic loss divided by the concentration. A low value points to slow turnover. In the case of `COc1cc2nccc(Oc3ccc(NC(=O)c4nn(C5CCOCC5)cc(-c5ccc(F)cc5)c4=O)nc3)c2cc1OC` [Compound 34, N-(5-((6,7-dimethoxyquinolin-4-yl)oxy)pyridin-2-yl)-5-(4-fluorophenyl)-4-oxo-1-(tetrahydro-2H-pyran-4-yl)-1,4-dihydropyridazin-3-carboxamide], in data set [1], the half-life at 1 μM turned out to be 5.25 h and the microsomal CLint at 1 μM is 4.4 µL/min/mg.
In general, IC50 refers to the concentration at which inhibition is half-maximal. In data set [1], `COc1cc2nccc(Oc3ccc(NC(=O)c4nn(C5CCOCC5)cc(-c5ccc(C)cc5)c4=O)cc3F)c2cc1OC` [Compound 28] showed a half-life at 1 μM of 1.44 h and a microsomal CLint at 1 μM of 16 µL/min/mg. This molecule also had an IC50 in data set [2] of 1.1 nM.
On to `COc1cc2nccc(Oc3ccc(NC(=O)c4cc(CC5CCOCC5)cn(-c5ccc(C)cc5)c4=O)nc3)c2cc1OC` [Compound 26, N-(5-((6,7-dimethoxyquinolin-4-yl)oxy)pyridin-2-yl)-oxo-5-((tetrahydro-2H-pyran-4-yl)methyl)-1-(p-tolyl)-1,2-dihydropyridin-3-carboxamide], for which, in data set [1], the half-life at 1 μM was 1.75 h and the intrinsic clearance (microsomal CLint) at 1 μM was 13.2 µL/min/mg.
Taken in the same sequence, the figures for `COc1cc2nccc(Oc3ccc(NC(=O)c4cn(CC5CC[S+]([O-])CC5)cc(-c5ccc(C)cc5)c4=O)nc3)c2cc1OC` (centres unmarked) [Compound 8, N-(5-((6,7-dimethoxyquinolin-4-yl)oxy)pyridin-2-yl)-1-((1-oxotetrahydro-2H-thiopyran-4-yl)methyl)-4-oxo-5-(p-tolyl)-1,4-dihydropyridin-3-carboxamide] were 3.22 h and 7.2 µL/min/mg.
As to `COc1cc2nccc(Oc3ccc(NC(=O)c4nn(C5CCOCC5)cc(-c5ccc(C)cc5)c4=O)nc3)c2cc1OC` [Compound 17, N-(5-((6,7-dimethoxyquinolin-4-yl)oxy)pyridin-2-yl)-4-oxo-1-(tetrahydro-2H-pyran-4-yl)-5-(p-tolyl)-1,4-dihydropyridazin-3-carboxamide], in data set [1], the half-life at 1 μM stood at 1.87 h and the microsomal CLint at 1 μM was 12.4 µL/min/mg. Further, in data set [2], the IC50 was below 0.35 nM.
In data set [1], `COc1cc2nccc(Oc3ccc(NC(=O)c4cn(C5CCOCC5)cc(-c5ccc(F)cc5)c4=O)nc3)c2cc1OC` [Compound 27, N-(5-((6,7-dimethoxyquinolin-4-yl)oxy)pyridin-2-yl)-5-(4-fluorophenyl)-4-oxo-1-(tetrahydro-2H-pyran-4-yl)-1,4-dihydropyridin-3-carboxamide] displayed a half-life at 1 μM of 5.02 h and a microsomal CLint at 1 μM of 4.6 µL/min/mg. The molecule further displayed an IC50 in data set [2] below 1.1 nM.
The matching figures for `COc1cc2nccc(Oc3cnc(NC(=O)c4cn(C5CCOCC5)cc(-c5ccc(C)cc5)c4=O)nc3)c2cc1OC` [Compound 20, N-(5-((6,7-dimethoxyquinolin-4-yl)oxy)pyrimidin-2-yl)-4-oxo-1-(tetrahydro-2H-pyran-4-yl)-5-(p-tolyl)-1,4-dihydropyridin-3-carboxamide]: 3.73 h, 6.2 µL/min/mg and 3.3 to 10 nM.
In data set [1], `Cc1ccc(-c2cn(C3CCOCC3)nc(C(=O)Nc3ccc(Oc4ccnc5cc6c(cc45)OCO6)cn3)c2=O)cc1` [Compound 29, N-(5-([1,3]dioxolo[4,5-g]quinolin-8-yloxy)pyridin-2-yl)-4-oxo-1-(tetrahydro-2H-pyran-4-yl)-5-(p-tolyl)-1,4-dihydropyridazin-3-carboxamide] yielded a half-life at 1 μM of 1.6 h and a microsomal CLint at 1 μM of 14.4 µL/min/mg.
In data set [1], `COc1cc2nccc(Oc3cnc(NC(=O)c4cn(C5CCOCC5)cc(-c5ccc(F)cc5)c4=O)nc3)c2cc1OC` [Compound 31, N-(5-((6,7-dimethoxyquinolin-4-yl)oxy)pyrimidin-2-yl)-5-(4-fluorophenyl)-4-oxo-1-(tetrahydro-2H-pyran-4-yl)-1,4-dihydropyridin-3-carboxamide] had a half-life at 1 μM of 6.42 h and a microsomal CLint at 1 μM of 3.6 µL/min/mg. The IC50 in data set [2] fell in the range of 3.3 to 10 nM.
In data set [1], `COc1cc2nccc(Oc3cnc(NC(=O)c4cn(CC5CCOCC5)cc(-c5ccc(C)cc5)c4=O)nc3)c2cc1OC` [Compound 4, N-(5-((6,7-dimethoxyquinolin-4-yl)oxy)pyrimidin-2-yl)-4-oxo-1-((tetrahydro-2H-pyran-4-yl)methyl)-5-(p-tolyl)-1,4-dihydropyridin-3-carboxamide] gave a half-life at 1 μM of 3.22 h and a microsomal CLint at 1 μM of 7.2 µL/min/mg. Further, the IC50 in data set [2] came out at 1.1 nM.
In data set [1], `COc1cc2nccc(Oc3ccc(NC(=O)c4cn(CC5CCSCC5)cc(-c5ccc(C)cc5)c4=O)nc3)c2cc1OC` [Compound 9, N-(5-((6,7-dimethoxyquinolin-4-yl)oxy)pyridin-2-yl)-4-oxo-1-((tetrahydro-2H-thiopyran-4-yl)methyl)-5-(p-tolyl)-1,4-dihydropyridin-3-carboxamide] showed a half-life at 1 μM of 0.818 h and a microsomal CLint at 1 μM of 28.2 µL/min/mg. This molecule displayed an IC50 in data set [2] of 1.1 to 3.3 nM.
`COc1cc2nccc(Oc3cnc(NC(=O)c4nn(C5CCOCC5)cc(-c5ccc(F)cc5)c4=O)nc3)c2cc1OC` [Compound 33, N-(5-((6,7-dimethoxyquinolin-4-yl)oxy)pyrimidin-2-yl)-5-(4-fluorophenyl)-4-oxo-1-(tetrahydro-2H-pyran-4-yl)-1,4-dihydropyridazin-3-carboxamide]: in data set [1], the half-life at 1 μM was 4.82 h and the microsomal CLint at 1 μM was found to be 4.8 µL/min/mg.
Consider `COc1cc2nccc(Oc3ccc(NC(=O)c4cn(CC5CCOCC5)cc(-c5ccc(C)cc5)c4=O)nc3)c2cc1OC` [Compound 1, N-(5-((6,7-dimethoxyquinolin-4-yl)oxy)pyridin-2-yl)-4-oxo-1-((tetrahydro-2H-pyran-4-yl)methyl)-5-(p-tolyl)-1,4-dihydropyridin-3-carboxamide], for which, in data set [2], the 50% inhibitory concentration (IC50) was 1.1 to 3.3 nM.
The same measure, in the same setting: under `COc1cc2nccc(Oc3ccc(NC(=O)c4nn(CC5CCOCC5)cc(-c5ccc(C)cc5)c4=O)nc3)c2cc1OC` [Compound 2, N-(5-((6,7-dimethoxyquinolin-4-yl)oxy)pyridin-2-yl)-4-oxo-1-((tetrahydro-2H-pyran-4-yl)methyl)-5-(p-tolyl)-1,4-dihydropyridazin-3-carboxamide] stands 1.1 nM.
For `Cc1ccc(-c2cn(C3CCOCC3)nc(C(=O)Nc3ccc(Oc4ccnc5cc6c(cc45)OCCO6)cn3)c2=O)cc1` [Compound 30, N-(5-((2,3-dihydro-[1,4]dioxino[2,3-g]quinolin-9-yl)oxy)pyridin-2-yl)-4-oxo-1-(tetrahydro-2H-pyran-4-yl)-5-(p-tolyl)-1,4-dihydropyridazin-3-carboxamide], in data set [1], the half-life at 1 μM turned out to be 1.38 h and the microsomal CLint at 1 μM amounted to 16.8 µL/min/mg.
